Assay: gradient 5% acetonitrile 3 min, to 50% in 2 min, to 85% in 15 min, held 3 min, 100 µL/min
Conditions: column: Zorbax Extend-C18 2.1 x 50 mm; eluents: water / acetonitrile, 0.1% formic acid
In short: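 The mobile phases were water and acetonitrile, each with 0.1% formic acid, pumped at 100 μL/min through a Zorbax Extend-C18 column (2.1 × 50 mm, 1.8 μm). Pure standards were injected as mixtures of ~100 molecules and detected by a quadrupole time-of-flight mass spectrometer in positive and negative ionization mode. Retention time came from computationally picked adduct peaks, each inspected by hand.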

| RP-LC retention time | Compound |
| --- | --- |
| 692 s | CC(=O)N1CCc2cc(N3CC(C(=O)Nc4ccccc4C)CC3=O)ccc21 (stereo unspecified) |
| 675 s | COc1ccc(-c2cc(C(=O)NCC(c3cccs3)N(C)C)no2)cc1 (stereo unspecified) |
| 861 s | CCOC(=O)c1cn(Cc2ccc(C)cc2)c2nc(C)ccc2c1=O |
| 674 s | O=C(NCC(=O)N1CC[C@H](NC2CCC(O)(c3ccc(-c4ncccn4)cn3)CC2)C1)c1cccc(C(F)(F)F)c1 (stereo partly specified) |
| 822 s | CCOc1ccc(NC(=O)Cn2nc3c(Oc4ccccc4)nccn3c2=O)cc1 |
| 706 s | CN(C)C(=O)c1cccc2c1CCN2C(=O)c1ccccc1 |
| 720 s | CCCNC(=O)C1CCCN(c2ccc(SCC(=O)Nc3cccc(Cl)c3C)nn2)C1 (stereo unspecified) |
| 672 s | CSc1nnc(NC(=O)c2ccccc2[N+](=O)[O-])s1 |
| 809 s | COc1cc(OC)c2c(C)cc(=O)oc2c1 |
| 567 s | CCn1ncc(C(=O)N2CCCn3ccnc3C2C(C)C)c1C (stereo unspecified) |
| 631 s | Cc1noc([C@@H]2CN(C(=O)c3ccc(Cc4c(C)noc4C)o3)C[C@H]2C(N)=O)n1 |
| 823 s | O=C(Nc1nc2c(s1)CN(S(=O)(=O)c1ccccc1)CC2)c1ccoc1 |
| 860 s | O=C(Nc1ccc(F)c(Cl)c1)N1CCC(n2cnc3ccc(F)cc3c2=O)CC1 |
| 671 s | CN1C(=O)CCc2cc(NC(=O)c3cccs3)ccc21 |
| 935 s | Cc1ccc(Cn2c(=O)c(N3CCN(C(=O)NCC4CCCO4)CC3)nc3cccnc32)cc1 (stereo unspecified) |
| 1090 s | O=C(NCCC1=CCCCC1)C1CCN(S(=O)(=O)c2ccc(-c3noc(C4CC4)n3)cc2)CC1 |
| 702 s | O=C(NCc1cccc(F)c1)C1CCCN(c2cnc3nccnc3c2)C1 (stereo unspecified) |
| 762 s | CC(=O)Nc1c(C)noc1/C=C\c1ccc(S(=O)(=O)N2CCN(c3ncccn3)CC2)cc1 |

| RP-LC retention time | Compound |
| --- | --- |
| 829 s | O=C(Cn1c(C(F)(F)F)nc2cc3c(cc21)OCCO3)NCc1ccccc1 |
| 713 s | CCCCn1c(CNC(=O)c2cccs2)nnc1SCC(=O)OCC |
| 612 s | CCn1c(C(=O)NCCCN2CCOCC2)cc2c(=O)oc3ccccc3c21 |
| 725 s | Cc1nc(-c2csc(S(=O)(=O)N3CCC(C(=O)NCC4CCCO4)CC3)c2)no1 (stereo unspecified) |
| 717 s | Cc1cc(NC(=O)C2CCCN(c3nnc4ccccn34)C2)ccc1F (stereo unspecified) |
| 620 s | CCCN(Cc1ccc(OC)c(OC)c1)Cc1cc(=O)n2cccc(C)c2n1 |
| 818 s | Cc1cc(C)n(Cc2nc(-c3ccc(NC(=O)c4ccco4)cc3)oc2C)n1 |
| 848 s | CC(NC(=O)CC1Sc2ccc(C(F)(F)F)cc2NC1=O)c1ccccc1 (stereo unspecified) |
| 687 s | Cc1nn(C(C)C(=O)NCCCN(C)Cc2ccccc2)c(=O)c2c(C)n(-c3ccccc3)nc12 (stereo unspecified) |
| 609 s | CN1C(=O)c2cccn2CC1C(=O)N1CCN(c2ncccn2)CC1 (stereo unspecified) |
| 563 s | CCN(CC)C(=O)Cn1c(CO)nc2ccccc21 |
| 685 s | O=C(Nc1ccc2c(N3CCCCC3)ncnc2c1)c1ccc(Br)o1 |
| 694 s | Cn1nc(-c2ccc(F)cc2)cc1C(=O)NCc1n[nH]c(=O)c2ccccc12 |
| 1050 s | Cn1nc(-c2nc(-c3ccccc3)no2)c2c1CCN(C(=O)Nc1cccc(Cl)c1)C2 |
| 1090 s | Fc1ccc(-c2nc(-c3cn(Cc4ccccc4)nn3)no2)cc1 |
| 988 s | Cc1nn(-c2ccc(-c3ccccc3)nn2)c(C)c1S(=O)(=O)NCc1ccc(F)cc1 |
| 567 s | COC(=O)c1ccc(C(=O)NCC2CCN(Cc3ccccc3SC)CC2)cc1 |
| 700 s | Cc1cc(-c2nnc(C3CC3)o2)c(C)n1CC(=O)Nc1ccc(N2CCOCC2)cc1 |
